Consider 14 compounds from US20240218022A1, “ANTI-VISTA MACROCYCLIC PEPTIDES AND COMPOSITIONS” (BRISTOL-MYERS SQUIBB COMPANY, priority 2022, published 2024).

Structures are written as SMILES. Positions of bridges follow the written chain, without caps; N, C: chain ends. Non-standard residues stand in square brackets, D forms with d. Residues, ends and D or L forms follow the SMILES beside them. ξ: configuration not given here. 2Nal = N[C@@H](Cc1ccc2ccccc2c1)C(=O)O; NMeIle(3ξ) = CCC(C)[C@H](NC)C(=O)O; Cit = NC(=O)NCCC[C@H](N)C(=O)O; NMeD = CN[C@@H](CC(=O)O)C(=O)O; NMeN = CN[C@@H](CC(N)=O)C(=O)O; NMeL = CN[C@@H](CC(C)C)C(=O)O; Ahp(2) = CCCCC[C@H](N)C(=O)O; NMeNle = CCCC[C@H](NC)C(=O)O; NHexGly = CCCCCCNCC(=O)O; Nle = CCCC[C@H](N)C(=O)O; Orn = NCCC[C@H](N)C(=O)O

This assay has as its target T1, mouse VISTA (mVISTA) (Mus musculus, UniProt Q9D659).
T1 construct: expressed in transfected cells; host or cells: Human embryonic kidney 293T cells
T1 sequence (Q9D659 33-308): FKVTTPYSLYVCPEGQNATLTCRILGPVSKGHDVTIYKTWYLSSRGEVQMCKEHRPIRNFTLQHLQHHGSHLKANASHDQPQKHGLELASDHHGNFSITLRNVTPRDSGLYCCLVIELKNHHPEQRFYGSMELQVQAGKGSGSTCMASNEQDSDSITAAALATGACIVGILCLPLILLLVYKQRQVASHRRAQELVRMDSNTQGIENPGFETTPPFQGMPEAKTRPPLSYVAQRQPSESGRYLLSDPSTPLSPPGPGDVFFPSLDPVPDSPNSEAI
The assay is described as follows: Cell-Based Binding High-Content Assay For mVISTA (HC CBA mVISTA). The settings on record: cell-based binding high-content assay, mVISTA; the 15th table; read-out: HC CBA mVISTA IC50. The method in brief: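 Read-out: Alexa 647–streptavidin signal imaged on fixed, Hoechst-stained mVISTA-293T cells, with IC50 taken from a four-parameter logistic curve. Compounds competed with 2 nM biotinylated peptide for 30 min at room temperature, tested under both no-wash and wash (1 h compound, media exchange, 1 h) formats.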
In the case of `CCCCCCN1CC(=O)N[C@@H](Cc2ccc(O)cc2)C(=O)N[C@@H](CCCC)C(=O)N[C@@H](CC(=O)O)C(=O)N[C@@H](CCCN)C(=O)N[C@@H](CC(C)C)C(=O)N[C@@H](CCCCC)C(=O)N2CCC[C@H]2C(=O)N[C@@H](C(C)C)C(=O)N[C@@H](CC(=O)O)C(=O)N[C@H](C(=O)N[C@@H](CO)C(N)=O)CSCC(=O)N[C@@H](Cc2ccc3ccccc3c2)C(=O)N[C@@H](Cc2c[nH]c3ccccc23)C(=O)N[C@@H](CC(=O)O)C1=O` [compound 1236] ({CH2CO}-[2Nal]WD[NHexGly]Y[Nle]D[Orn]L[Ahp(2)]PVDCS-NH2; thioether N-14), the IC50 was 27.7 nM.
For `CCCCCCN1CC(=O)N[C@@H](Cc2ccc(O)cc2)C(=O)N[C@@H](CCCC)C(=O)N[C@@H](CC(N)=O)C(=O)N[C@@H](CCCNC(=N)N)C(=O)N(C)[C@@H](C(C)CC)C(=O)N[C@@H](CCCCC)C(=O)N2CCC[C@H]2C(=O)N[C@@H](C(C)C)C(=O)N[C@@H](CC(=O)O)C(=O)N[C@H](C(=O)NCC(=O)O)CSCC(=O)N[C@@H](Cc2ccc3ccccc3c2)C(=O)N[C@@H](Cc2c[nH]c3ccccc23)C(=O)N[C@@H](CC(=O)O)C1=O` (some centres unmarked) [compound 1237] ({CH2CO}-[2Nal]WD[NHexGly]Y[Nle]NR[NMeIle(3ξ)][Ahp(2)]PVDCG-OH; thioether N-14) the value was 9.1 nM.
The value for `CCCCCCN1CC(=O)N[C@@H](Cc2ccc(O)cc2)C(=O)N[C@@H](CCCC)C(=O)N[C@@H](CC(N)=O)C(=O)N[C@@H](CCCNC(=N)N)C(=O)N(C)[C@@H](CC(=O)O)C(=O)N[C@@H](CCCCC)C(=O)N2CCC[C@H]2C(=O)N[C@@H](C(C)C)C(=O)N[C@@H](CC(=O)O)C(=O)N[C@H](C(=O)NCC(=O)O)CSCC(=O)N[C@@H](Cc2ccc3ccccc3c2)C(=O)N[C@@H](Cc2c[nH]c3ccccc23)C(=O)N[C@@H](CC(=O)O)C1=O` [compound 1238] ({CH2CO}-[2Nal]WD[NHexGly]Y[Nle]NR[NMeD][Ahp(2)]PVDCG-OH; thioether N-14) was 25.2 nM; that for `CCCCCCN1CC(=O)N[C@@H](Cc2ccc(O)cc2)C(=O)N[C@@H](CCCC)C(=O)N[C@@H](CC(N)=O)C(=O)N[C@@H](CCCNC(=N)N)C(=O)N(C)[C@@H](CC(C)C)C(=O)N[C@@H](CCCCC)C(=O)N2CCC[C@H]2C(=O)N[C@@H](C(C)C)C(=O)N[C@@H](CC(=O)O)C(=O)N[C@H](C(=O)NCC(=O)O)CSCC(=O)N[C@@H](Cc2ccc3ccccc3c2)C(=O)N[C@@H](Cc2c[nH]c3ccccc23)C(=O)N[C@@H](CC(=O)O)C1=O` [compound 1239] ({CH2CO}-[2Nal]WD[NHexGly]Y[Nle]NR[NMeL][Ahp(2)]PVDCG-OH; thioether N-14) was 3.2 nM.
For `CCCCCCN1CC(=O)N[C@@H](Cc2ccc(O)cc2)C(=O)N[C@@H](CCCC)C(=O)N[C@@H](CC(N)=O)C(=O)N[C@@H](CCCNC(=N)N)C(=O)N(C)[C@@H](CC(C)C)C(=O)N[C@@H](CCCCC)C(=O)N2CCC[C@H]2C(=O)N[C@@H](C(C)C)C(=O)N[C@@H](CC(=O)O)C(=O)N[C@H](C(=O)N[C@@H](CO)C(=O)O)CSCC(=O)N[C@@H](Cc2ccc3ccccc3c2)C(=O)N[C@@H](Cc2c[nH]c3ccccc23)C(=O)N[C@@H](CC(=O)O)C1=O` [compound 1240] ({CH2CO}-[2Nal]WD[NHexGly]Y[Nle]NR[NMeL][Ahp(2)]PVDCS-OH; thioether N-14) the value was 14.4 nM.
Turning to `CCCCCCN1CC(=O)N[C@@H](Cc2ccc(O)cc2)C(=O)N[C@@H](CCCC)C(=O)N[C@@H](CC(N)=O)C(=O)N[C@@H](CCCNC(=N)N)C(=O)N(C)[C@@H](CC(N)=O)C(=O)N[C@@H](CCCCC)C(=O)N2CCC[C@H]2C(=O)N[C@@H](C(C)C)C(=O)N[C@@H](CC(=O)O)C(=O)N[C@H](C(=O)NCC(=O)O)CSCC(=O)N[C@@H](Cc2ccc3ccccc3c2)C(=O)N[C@@H](Cc2c[nH]c3ccccc23)C(=O)N[C@@H](CC(=O)O)C1=O` [compound 1241] ({CH2CO}-[2Nal]WD[NHexGly]Y[Nle]NR[NMeN][Ahp(2)]PVDCG-OH; thioether N-14), the half-maximal inhibitory concentration (IC50) worked out at 35.1 nM.
Turning to `CCCCCCN1CC(=O)N[C@@H](Cc2ccc(O)cc2)C(=O)N[C@@H](CCCC)C(=O)N[C@@H](CC(=O)O)C(=O)N[C@@H](CCCNC(N)=O)C(=O)N(C)[C@@H](CCCC)C(=O)N[C@@H](CCCCC)C(=O)N2CCC[C@H]2C(=O)N[C@@H](C(C)C)C(=O)N[C@@H](CC(=O)O)C(=O)N[C@H](C(=O)N[C@@H](CC(=O)O)C(N)=O)CSCC(=O)N[C@@H](Cc2ccc3ccccc3c2)C(=O)N[C@@H](Cc2c[nH]c3ccccc23)C(=O)N[C@@H](CC(=O)O)C1=O` [compound 1242] ({CH2CO}-[2Nal]WD[NHexGly]Y[Nle]D[Cit][NMeNle][Ahp(2)]PVDCD-NH2; thioether N-14), the half-inhibitory concentration (IC50) stood at 8.9 nM.
For `CCCCCCN1CC(=O)N[C@@H](Cc2ccc(O)cc2)C(=O)N[C@@H](CCCC)C(=O)N[C@@H](CC(=O)O)C(=O)N[C@@H](CCCNC(=N)N)C(=O)N(C)[C@@H](CCCC)C(=O)N[C@@H](CCCCC)C(=O)N2CCC[C@H]2C(=O)N[C@@H](C(C)C)C(=O)N[C@@H](CC(=O)O)C(=O)N[C@H](C(=O)N[C@@H](CC(=O)O)C(N)=O)CSCC(=O)N[C@@H](Cc2ccc3ccccc3c2)C(=O)N[C@@H](Cc2c[nH]c3ccccc23)C(=O)N[C@@H](CC(=O)O)C1=O` [compound 1243] ({CH2CO}-[2Nal]WD[NHexGly]Y[Nle]DR[NMeNle][Ahp(2)]PVDCD-NH2; thioether N-14) the value was 20.1 nM; for `CCCCCCN1CC(=O)N[C@@H](Cc2ccc(O)cc2)C(=O)N[C@@H](CCCC)C(=O)N[C@@H](CC(=O)O)C(=O)N[C@@H](CCCN)C(=O)N(C)[C@@H](CCCC)C(=O)N[C@@H](CCCCC)C(=O)N2CCC[C@H]2C(=O)N[C@@H](C(C)C)C(=O)N[C@@H](CC(=O)O)C(=O)N[C@H](C(=O)N[C@@H](CC(=O)O)C(N)=O)CSCC(=O)N[C@@H](Cc2ccc3ccccc3c2)C(=O)N[C@@H](Cc2c[nH]c3ccccc23)C(=O)N[C@@H](CC(=O)O)C1=O` [compound 1244] ({CH2CO}-[2Nal]WD[NHexGly]Y[Nle]D[Orn][NMeNle][Ahp(2)]PVDCD-NH2; thioether N-14), 13.5 nM.
For `CCCCCCN1CC(=O)N[C@@H](Cc2ccc(O)cc2)C(=O)N[C@@H](CCCC)C(=O)N[C@@H](CC(N)=O)C(=O)N[C@@H](CCCNC(=N)N)C(=O)N(C)[C@@H](CCCC)C(=O)N[C@@H](CCCCC)C(=O)N2CCC[C@H]2C(=O)N[C@@H](C(C)C)C(=O)N[C@@H](CC(=O)O)C(=O)N[C@H](C(=O)NCC(=O)O)CSCC(=O)N[C@@H](Cc2ccc3ccccc3c2)C(=O)N[C@@H](Cc2c[nH]c3ccccc23)C(=O)N[C@@H](CC(=O)O)C1=O` [compound 1245] ({CH2CO}-[2Nal]WD[NHexGly]Y[Nle]NR[NMeNle][Ahp(2)]PVDCG-OH; thioether N-14) the value was 6.2 nM; for `CCCCCCN1CC(=O)N[C@@H](Cc2ccc(O)cc2)C(=O)N[C@@H](CCCC)C(=O)N[C@@H](CC(N)=O)C(=O)N[C@@H](CCCNC(=N)N)C(=O)N(C)[C@@H](CCCC)C(=O)N[C@@H](CCCCC)C(=O)N2CCC[C@H]2C(=O)N[C@@H](C(C)C)C(=O)N[C@@H](CCCNC(=N)N)C(=O)N[C@H](C(=O)NCC(=O)O)CSCC(=O)N[C@@H](Cc2ccc3ccccc3c2)C(=O)N[C@@H](Cc2c[nH]c3ccccc23)C(=O)N[C@@H](CC(=O)O)C1=O` [compound 1246] ({CH2CO}-[2Nal]WD[NHexGly]Y[Nle]NR[NMeNle][Ahp(2)]PVRCG-OH; thioether N-14), 25.1 nM.
The value for `CCCCCCN1CC(=O)N[C@@H](Cc2ccc(O)cc2)C(=O)N[C@@H](CCCC)C(=O)N[C@@H](CC(N)=O)C(=O)N[C@@H](CCCNC(=N)N)C(=O)N(C)[C@@H](CCCC)C(=O)N[C@@H](CCCCC)C(=O)N2CCC[C@H]2C(=O)N[C@@H](C(C)C)C(=O)N[C@@H](CO)C(=O)N[C@H](C(=O)NCC(=O)O)CSCC(=O)N[C@@H](Cc2ccc3ccccc3c2)C(=O)N[C@@H](Cc2c[nH]c3ccccc23)C(=O)N[C@@H](CC(=O)O)C1=O` [compound 1247] ({CH2CO}-[2Nal]WD[NHexGly]Y[Nle]NR[NMeNle][Ahp(2)]PVSCG-OH; thioether N-14) was 35.2 nM; that for `CCCCCCN1CC(=O)N[C@@H](Cc2ccc(O)cc2)C(=O)N[C@@H](CCCC)C(=O)N[C@@H](CC(N)=O)C(=O)N[C@@H](CCCNC(=N)N)C(=O)N(C)[C@@H](CCCC)C(=O)N[C@@H](CCCCC)C(=O)N2CCC[C@H]2C(=O)N[C@@H](C(C)C)C(=O)N[C@@H](C(C)C)C(=O)N[C@H](C(=O)NCC(=O)O)CSCC(=O)N[C@@H](Cc2ccc3ccccc3c2)C(=O)N[C@@H](Cc2c[nH]c3ccccc23)C(=O)N[C@@H](CC(=O)O)C1=O` [compound 1248] ({CH2CO}-[2Nal]WD[NHexGly]Y[Nle]NR[NMeNle][Ahp(2)]PVVCG-OH; thioether N-14) was 38.4 nM.
Consider `CCCCCCN1CC(=O)N[C@@H](Cc2ccc(O)cc2)C(=O)N[C@@H](CCCC)C(=O)N[C@@H](CC(N)=O)C(=O)N[C@@H](CCCNC(=N)N)C(=O)N(C)[C@@H](CCCC)C(=O)N[C@@H](CCCCC)C(=O)N2CCC[C@H]2C(=O)N[C@@H](C(C)C)C(=O)N[C@@H](CC(N)=O)C(=O)N[C@H](C(=O)NCC(=O)O)CSCC(=O)N[C@@H](Cc2ccc3ccccc3c2)C(=O)N[C@@H](Cc2c[nH]c3ccccc23)C(=O)N[C@@H](CC(=O)O)C1=O` [compound 1249] ({CH2CO}-[2Nal]WD[NHexGly]Y[Nle]NR[NMeNle][Ahp(2)]PVNCG-OH; thioether N-14), for which the IC50 is 13.9 nM.

What is called IC50 is the point on the concentration scale where inhibition reaches its midpoint.
